Experimental data published in ChEMBL document CHEMBL4043145, “Pyridine-pyrimidine amides that prevent HGF-induced epithelial scattering by two distinct mechanisms” (Bioorg Med Chem Lett, 2017).

Columns and labels:
Assay type in all cases: functional
[1] = tested on: T47D; assay: Induction of apoptosis in human T47D cells assessed as nuclear debris at 300 nM by 7-AAD/Annexin staining-based assay (reference value: 0.2 to 7.7%)
[2] = tested on: T47D; assay: Induction of apoptosis in human T47D cells assessed as late apoptotic cells at 300 nM by 7-AAD/Annexin staining-based assay (reference value: 3 to 13.4%)
[3] = tested on: PC-3; assay: Induction of apoptosis in human p53-null PC3 cells assessed as early apoptotic cells at 1000 nM by 7-AAD/Annexin staining-based assay (reference value: 0.6 to 1.4%)
[4] = tested on: PC-3; assay: Induction of apoptosis in human p53-null PC3 cells assessed as late apoptotic cells at 100 nM by 7-AAD/Annexin staining-based assay (reference value: 0.4 to 1.6%)
[5] = tested on: MFE-296; assay: Induction of apoptosis in human MFE296 cells assessed as late apoptotic cells at 100 nM by 7-AAD/Annexin staining-based assay (reference value: 3.6 to 6.6%)
[6] = tested on: MFE-280; assay: Induction of apoptosis in human MFE280 cells assessed as nuclear debris at 1000 nM by 7-AAD/Annexin staining-based assay (reference value: 0.5 to 2.3%)
[7] = tested on: MCF7; assay: Induction of apoptosis in human MCF7 cells assessed as early apoptotic cells at 100 nM by 7-AAD/Annexin staining-based assay (reference value: 2 to 2.7%)
[8] = tested on: A2780; assay: Induction of apoptosis in human A2780 cells assessed as viable cells at 100 nM by 7-AAD/Annexin staining-based assay (reference value: 95 to 96.7%); details: read-out: Activity
[9] = tested on: MCF7; assay: Induction of apoptosis in human MCF7 cells assessed as nuclear debris at 300 nM by 7-AAD/Annexin staining-based assay (reference value: 0.2 to 3%)
[10] = tested on: MCF7; assay: Induction of apoptosis in human MCF7 cells assessed as viable cells at 100 nM by 7-AAD/Annexin staining-based assay (reference value: 92.6 to 96.8%); details: read-out: Activity
[11] = tested on: T47D; assay: Induction of apoptosis in human T47D cells assessed as nuclear debris at 100 nM by 7-AAD/Annexin staining-based assay (reference value: 0.2 to 7.7%)
[12] = tested on: A2780; assay: Induction of apoptosis in human A2780 cells assessed as nuclear debris at 300 nM by 7-AAD/Annexin staining-based assay (reference value: 0.3 to 1.1%)
[13] = tested on: PC-3; assay: Induction of apoptosis in human p53-null PC3 cells assessed as early apoptotic cells at 100 nM by 7-AAD/Annexin staining-based assay (reference value: 0.6 to 1.4%)
[14] = tested on: MFE-280; assay: Induction of apoptosis in human MFE280 cells assessed as viable cells at 1000 nM by 7-AAD/Annexin staining-based assay (reference value: 84.9 to 87.7%); details: read-out: Activity
[15] = tested on: PC-3; assay: Induction of apoptosis in human p53-null PC3 cells assessed as viable cells at 1000 nM by 7-AAD/Annexin staining-based assay (reference value: 96.5 to 98.6%); details: read-out: Activity
[16] = tested on: MCF7; assay: Induction of apoptosis in human MCF7 cells assessed as late apoptotic cells at 100 nM by 7-AAD/Annexin staining-based assay (reference value: 1 to 2.1%)
[17] = tested on: T47D; assay: Induction of apoptosis in human T47D cells assessed as early apoptotic cells at 300 nM by 7-AAD/Annexin staining-based assay (reference value: 1.6 to 4.3%)
[18] = tested on: MCF7; assay: Induction of apoptosis in human MCF7 cells assessed as nuclear debris at 100 nM by 7-AAD/Annexin staining-based assay (reference value: 0.2 to 3%)
[19] = tested on: T47D; assay: Induction of apoptosis in human T47D cells assessed as early apoptotic cells at 1000 nM by 7-AAD/Annexin staining-based assay (reference value: 1.6 to 4.3%)
[20] = tested on: A2780; assay: Induction of apoptosis in human A2780 cells assessed as early apoptotic cells at 100 nM by 7-AAD/Annexin staining-based assay (reference value: 1.7 to 2.1%)
[21] = tested on: A2780; assay: Induction of apoptosis in human A2780 cells assessed as late apoptotic cells at 300 nM by 7-AAD/Annexin staining-based assay (reference value: 1.2 to 2.2%)
[22] = tested on: PC-3; assay: Induction of apoptosis in human p53-null PC3 cells assessed as nuclear debris at 1000 nM by 7-AAD/Annexin staining-based assay (reference value: 0.1 to 0.5%)
[23] = tested on: MFE-296; assay: Induction of apoptosis in human MFE296 cells assessed as nuclear debris at 1000 nM by 7-AAD/Annexin staining-based assay (reference value: 0.4 to 0.8%)
[24] = tested on: A2780; assay: Induction of apoptosis in human A2780 cells assessed as nuclear debris at 1000 nM by 7-AAD/Annexin staining-based assay (reference value: 0.3 to 1.1%)
[25] = tested on: MCF7; assay: Induction of apoptosis in human MCF7 cells assessed as viable cells at 1000 nM by 7-AAD/Annexin staining-based assay (reference value: 92.6 to 96.8%); details: read-out: Activity
[26] = tested on: MFE-296; assay: Induction of apoptosis in human MFE296 cells assessed as early apoptotic cells at 100 nM by 7-AAD/Annexin staining-based assay (reference value: 1.5 to 2.1%)
[27] = tested on: PC-3; assay: Induction of apoptosis in human p53-null PC3 cells assessed as early apoptotic cells at 300 nM by 7-AAD/Annexin staining-based assay (reference value: 0.6 to 1.4%)
[28] = tested on: A2780; assay: Induction of apoptosis in human A2780 cells assessed as viable cells at 300 nM by 7-AAD/Annexin staining-based assay (reference value: 95 to 96.7%); details: read-out: Activity
[29] = tested on: MFE-296; assay: Induction of apoptosis in human MFE296 cells assessed as viable cells at 100 nM by 7-AAD/Annexin staining-based assay (reference value: 90.9 to 94.4%); details: read-out: Activity
[30] = tested on: PC-3; assay: Induction of apoptosis in human p53-null PC3 cells assessed as viable cells at 100 nM by 7-AAD/Annexin staining-based assay (reference value: 96.5 to 98.6%); details: read-out: Activity
[31] = tested on: MCF7; assay: Induction of apoptosis in human MCF7 cells assessed as early apoptotic cells at 1000 nM by 7-AAD/Annexin staining-based assay (reference value: 2 to 2.7%)
[32] = tested on: T47D; assay: Induction of apoptosis in human T47D cells assessed as late apoptotic cells at 100 nM by 7-AAD/Annexin staining-based assay (reference value: 3 to 13.4%)
[33] = tested on: MFE-296; assay: Induction of apoptosis in human MFE296 cells assessed as early apoptotic cells at 300 nM by 7-AAD/Annexin staining-based assay (reference value: 1.5 to 2.1%)
[34] = tested on: PC-3; assay: Induction of apoptosis in human p53-null PC3 cells assessed as late apoptotic cells at 1000 nM by 7-AAD/Annexin staining-based assay (reference value: 0.4 to 1.6%)
[35] = tested on: T47D; assay: Induction of apoptosis in human T47D cells assessed as nuclear debris at 1000 nM by 7-AAD/Annexin staining-based assay (reference value: 0.2 to 7.7%)

Row | SMILES | Activity [1] | Activity [2] | Activity [3] | Activity [4] | Activity [5] | Activity [6] | Activity [7] | viability at 0.1 µM [8] | Activity [9] | viability at 0.1 µM [10] | Activity [11] | Activity [12] | Activity [13] | viability at 1 µM [14] | viability at 1 µM [15] | Activity [16] | Activity [17] | Activity [18] | Activity [19] | Activity [20] | also measured
1 | CN[C@@H]1C[C@H]2O[C@@](C)([C@@H]1OC)n1c3ccccc3c3c4c(c5c6ccccc6n2c5c31)C(=O)NC4 [STAUROSPORINE] | 0.4% | 3.5% | 1.3% | 0.7% | 6.6% | 3.1% | 3.4% | 90.5% | 1.1% | 93% | 0.1% | 1% | 1.2% | 47.5% | 97.3% | 3.1% | 5.5% | 0.6% | 6.2% | 5.4% | Activity [21]: 8.5%; Activity [22]: 0.2%; Activity [23]: 15.1%; Activity [24]: 4.3%; viability at 1 µM [25]: 62.1%; Activity [26]: 7.5%; Activity [27]: 1%; viability at 0.3 µM [28]: 87.1%; viability at 0.1 µM [29]: 83.6%; viability at 0.1 µM [30]: 98%; Activity [31]: 3.5%; Activity [32]: 2.4%; Activity [33]: 6.8%; Activity [34]: 1.2%; Activity [35]: 0.6%
2 | O=C(Nc1ccc(-c2cccc(Cl)c2)cn1)c1cncnc1 | 0.3% | 3.8% | 1.3% | 0.4% | 5.7% | 0.7% | 3.3% | 92.7% | 0.5% | 94.4% | 0.2% | 0.9% | 0.6% | 85.1% | 97% | 1.9% | 9.5% | 0.4% | 12% | 3.6% | Activity [21]: 3.5%; Activity [22]: 0.5%; Activity [23]: 2.9%; Activity [24]: 1.4%; viability at 1 µM [25]: 94%; Activity [26]: 2.1%; Activity [27]: 0.8%; viability at 0.3 µM [28]: 92.1%; viability at 0.1 µM [29]: 90.9%; viability at 0.1 µM [30]: 98.9%; Activity [31]: 3.3%; Activity [32]: 2.3%; Activity [33]: 2.8%; Activity [34]: 1.2%; Activity [35]: 0.6%
